Experimental data as given in patent publication US20250129430A1, “HIGH ATP-AFFINITY PROTEIN AS THERAPEUTIC TARGET FOR INTRACTABLE CANCER MOLECULAR SUBTYPES AND INHIBITOR THEREOF” (VeraVerse Co., Ltd., priority 2021, published 2025).
Structures can show the parent of a compound that is named as a salt.

Columns and labels:
Assay in all cases: Cell viability drug screen, 12-point dose-response AUC
Format in all cases: cell-based, human
FU97 = test system: FU97; parameters: Average Area Under the Viability Curve (AUC), AUC norm value: scale not given here; details: FU97 cells; 72 hours
Outline: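 Trapezoidal AUC of a 12-point, DMSO-normalized dose-response curve. Luminescent viability was measured after 72 h of exposure at 37° C to half-log serial dilutions (0.5% DMSO control), dosed 24 h after plating FU97 cells at 5×10^3 per well.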

SNU638 = SNU638 cells; 72 hours
Outline: (§1)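 Dose-response AUC reflects 72 h drug exposure of gastric cancer cells in a 12-point, half-log format, with viability read by luminescence and normalized to DMSO (0.5%).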

SNU719 = SNU719 cells; 72 hours
Outline: (§2)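 Viability: luminescence (Glo kit, 15 min RT), normalized to 0.5% DMSO vehicle. Dosing: half-log, 12 concentrations, 72 h. Cells: 5×10^3/well, treated 24 h after plating. Value: trapezoidal AUC, mean of repeats.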

Hs746T = Hs746T cells (SEM subtype); 72 hours
Outline: as §1

NCC24 = NCC24 cells; 72 hours
Outline: as §1

SNU216 = SNU216 cells (non-SEM subtype); 72 hours
Outline: as §2

KATO3 = KATO3 cells; 72 hours
Outline: as §1

NCC20 = NCC20 cells; 72 hours
Outline: as §1

YCC3 = YCC3 cells; 72 hours
Outline: as §1

NCC19 = NCC19 cells; 72 hours
Outline: as §1

YCC11 = YCC11 cells (SEM subtype); 72 hours
Outline: as §1

SNU1967 = SNU1967 cells; 72 hours
Outline: as §1

MKN74 = MKN74 cells; 72 hours
Outline: as §2

SNU484 = SNU484 cells (SEM subtype); 72 hours
Outline: as §1

SNU668 = SNU668 cells (SEM subtype); 72 hours
Outline: as §1

SNU601 = SNU601 cells; 72 hours
Outline: as §1

YCC2 = YCC2 cells; 72 hours
Outline: as §1

MKN28 = MKN28 cells; 72 hours
Outline: as §1

SNU1750 = SNU1750 cells (SEM subtype); 72 hours
Outline: as §1

SNU16 = SNU16 cells; 72 hours
Outline: as §1

MKN45 = MKN45 cells (non-SEM subtype); 72 hours
Outline: as §2

AGS = AGS cells (non-SEM subtype); 72 hours
Outline: as §2

SNU620 = SNU620 cells; 72 hours
Outline: as §1

NCI_N87 = NCI_N87 cells; 72 hours
Outline: as §1

OCUM1 = OCUM1 cells; 72 hours
Outline: as §1

MKN1 = MKN1 cells; 72 hours
Outline: as §1

SNU1 = SNU1 cells; 72 hours
Outline: as §1

SK4 = SK4 cells (SEM subtype); 72 hours
Outline: as §1

NCC59 = NCC59 cells; 72 hours
Outline: as §1

Row | Structure (SMILES) | Average Area Under the Viability Curve (AUC), AUC norm value (FU97) | Average Area Under the Viability Curve (AUC), AUC norm value (SNU638) | Average Area Under the Viability Curve (AUC), AUC norm value (SNU719) | Average Area Under the Viability Curve (AUC), AUC norm value (Hs746T) | Average Area Under the Viability Curve (AUC), AUC norm value (NCC24) | Average Area Under the Viability Curve (AUC), AUC norm value (SNU216) | Average Area Under the Viability Curve (AUC), AUC norm value (KATO3) | Average Area Under the Viability Curve (AUC), AUC norm value (NCC20) | Average Area Under the Viability Curve (AUC), AUC norm value (YCC3) | Average Area Under the Viability Curve (AUC), AUC norm value (NCC19) | Average Area Under the Viability Curve (AUC), AUC norm value (YCC11) | Average Area Under the Viability Curve (AUC), AUC norm value (SNU1967) | Average Area Under the Viability Curve (AUC), AUC norm value (MKN74) | Average Area Under the Viability Curve (AUC), AUC norm value (SNU484) | Average Area Under the Viability Curve (AUC), AUC norm value (SNU668) | Average Area Under the Viability Curve (AUC), AUC norm value (SNU601) | Average Area Under the Viability Curve (AUC), AUC norm value (YCC2) | Average Area Under the Viability Curve (AUC), AUC norm value (MKN28) | Average Area Under the Viability Curve (AUC), AUC norm value (SNU1750) | Average Area Under the Viability Curve (AUC), AUC norm value (SNU16) | other results
1 | CC(C)(C)c1ccc(C(O)CCCN2CCC(C(O)(c3ccccc3)c3ccccc3)CC2)cc1 (centres unmarked) [Terfenadine] | 1.163 | −0.8091 | 1.059 | −0.3246 | −2.355 | 1.499 | 0.4901 | −1.029 | 1.423 | 3.135 | −0.996 | −1.065 | −1.589 | 0.06057 | −0.5647 | 2.641 | 0.4862 | −0.2901 | −0.05758 | 0 | Average Area Under the Viability Curve (AUC), AUC norm value (MKN45): −0.5441; Average Area Under the Viability Curve (AUC), AUC norm value (AGS): −1.278; Average Area Under the Viability Curve (AUC), AUC norm value (SNU620): 0.4918; Average Area Under the Viability Curve (AUC), AUC norm value (NCI_N87): 1.465; Average Area Under the Viability Curve (AUC), AUC norm value (OCUM1): 1.032; Average Area Under the Viability Curve (AUC), AUC norm value (MKN1): −0.8127; Average Area Under the Viability Curve (AUC), AUC norm value (SNU1): 1.34; Average Area Under the Viability Curve (AUC), AUC norm value (SK4): −0.8713; Average Area Under the Viability Curve (AUC), AUC norm value (NCC59): 2.3563
2 | CCCCC(CC)CNC(=N)NC(=N)NCCCCCCNC(=N)NC(=N)NCC(CC)CCCC (centres unmarked) [Alexidine HCl] | −0.9535 | −0.612 | 1.2 | −0.2597 | −0.4745 | 0.03777 | 0.541 | 0.6963 | 0.8273 | 1.132 | −1.347 | 0.1828 | −0.3433 | −1.212 | −0.1375 | 1.898 | −0.00823 | 0 | −0.6331 | −1.849 | Average Area Under the Viability Curve (AUC), AUC norm value (MKN45): 0.04553; Average Area Under the Viability Curve (AUC), AUC norm value (AGS): −0.444; Average Area Under the Viability Curve (AUC), AUC norm value (SNU620): 0.0423; Average Area Under the Viability Curve (AUC), AUC norm value (NCI_N87): 2.531; Average Area Under the Viability Curve (AUC), AUC norm value (OCUM1): −0.04134; Average Area Under the Viability Curve (AUC), AUC norm value (MKN1): 0.8687; Average Area Under the Viability Curve (AUC), AUC norm value (SNU1): 0.7061; Average Area Under the Viability Curve (AUC), AUC norm value (SK4): −0.9023; Average Area Under the Viability Curve (AUC), AUC norm value (NCC59): 1.334
3 | O=C(Nc1ccc([N+](=O)[O-])cc1Cl)c1cc(Cl)ccc1O [Niclosamide (Niclocide), Niclosamide] | −1.793 | −1.105 | 2.503 | −0.6858 | 0.68 | −0.5185 | 1.591 | 0.2177 | 1.8253 | 2.917 | −0.8753 | 0.1419 | −1.62 | −1.164 | −0.9084 | 4.911 | 0.6628 | −0.3809 | −0.8987 | −3.062 | Average Area Under the Viability Curve (AUC), AUC norm value (MKN45): 1.159; Average Area Under the Viability Curve (AUC), AUC norm value (AGS): −1.094; Average Area Under the Viability Curve (AUC), AUC norm value (SNU620): 0.8518; Average Area Under the Viability Curve (AUC), AUC norm value (NCI_N87): 2.802; Average Area Under the Viability Curve (AUC), AUC norm value (OCUM1): 0; Average Area Under the Viability Curve (AUC), AUC norm value (MKN1): 0.3991; Average Area Under the Viability Curve (AUC), AUC norm value (SNU1): −1.673; Average Area Under the Viability Curve (AUC), AUC norm value (SK4): −1.038; Average Area Under the Viability Curve (AUC), AUC norm value (NCC59): 1.141
4 | NC(=O)Nc1cc(-c2cccc(F)c2)sc1C(=O)N[C@H]1CCCNC1 [AZD7762] | −0.7616 | 1.404 | 3.771 | 1.376 | 1.107 | 0.7004 | 2.891 | −0.4167 | 1.638 | 2.796 | −0.9757 | −0.3626 | −0.4773 | 0 | 1.537 | −0.957 | 0.451 | −0.3131 | −0.9031 | −1.119 | Average Area Under the Viability Curve (AUC), AUC norm value (MKN45): −0.3384; Average Area Under the Viability Curve (AUC), AUC norm value (AGS): −0.4403; Average Area Under the Viability Curve (AUC), AUC norm value (SNU620): 0.2258; Average Area Under the Viability Curve (AUC), AUC norm value (NCI_N87): 0.8405; Average Area Under the Viability Curve (AUC), AUC norm value (OCUM1): 0.511; Average Area Under the Viability Curve (AUC), AUC norm value (MKN1): −0.01906; Average Area Under the Viability Curve (AUC), AUC norm value (SNU1): −0.2026; Average Area Under the Viability Curve (AUC), AUC norm value (SK4): −0.9696; Average Area Under the Viability Curve (AUC), AUC norm value (NCC59): 2.107
